Data on 21 molecules can be found in US11129835B2, “Methods and compositions for the inhibition of PIN1” (Beth Israel Deaconess Medical Center, Inc., priority 2012, dated 2021).

Test [1] concerns the target T1, Pin1 (Homo sapiens, UniProt Q13526). Put plainly: Pin1 fluorescence polarization competition assay with Tamra-probe (secondary). The settings on record: for Emax: read-out: Tamra Secondary Efficacy; for Tamra Secondary Curve Class: Tamra-probe.
Method: An assay was developed for the identification of inhibitors of Pin1. […] Candidate compounds were screened in a concentration-titration series (e.g., 57 μM to 0.7 nM).
(§1) Pin1 (0.6 μM) was dispensed into black, solid 1536-well plates (32 rows by 48 columns) at 2 μL/well in Pin1 buffer (10 mM HEPES (pH 7.5), 10 mM NaCl, 0.01% Tween20, 1 mM DTT, and 1% glycerol). Next, 23 nL of compound or DMSO was delivered to each well using a pin tool (tip wash sequence: DMSO, IPA, MeOH, 3 s vacuum dry). Two μL of Pin1-1b-HiFluor488 peptide in buffer (10 mM HEPES (pH 7.5), 10 mM NaCl, 0.01% Tween20, 1 mM DTT, and 1% glycerol, 0.02 μM Pin1-1b-HiFluor488) or DMSO was then dispensed to each well using a pin tool (tip wash sequence: DMSO, IPA, MeOH, 3 s vacuum dry), and plates were incubated at room temperature for 10 min (Table 2). Each plate included controls with no candidate inhibitory compound (32 wells), with unlabeled Pin1-1c titration (3.5 mM to 0.020 mM in a 1:2 dilution series including 2 replicates per concentration; 32 wells), and without Pin1 (64 wells).
(§2) The fluorescence polarization signal of each well was measured on a ViewLux® plate reader using a 480/20 nm excitation filter and 540/25 nm S and P emission filters with a 20 second exposure with 2× binning (Table 2). Percent inhibitory activity was determined from corrected fluorescence polarization values.
(§3) Concentration-response curves were fitted to the signals arising from the resulting fluorescence polarization. The concentration-effect curves were then classified based on curve quality (r^2), response magnitude, and degree of measured activity. Compounds were subsequently categorized based on their curve class.
A further secondary assessment was accomplished by replacing the HiFluor-488-labeled probe with Tamra-probe, a red-shifted fluorophore.
In test [2] the target is T1, Pin1. Nature of the test: confirmatory Pin1 fluorescence polarization competition assay (Alexa488 reconfirmed).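 As to all read-outs here: Pin1 competition with a HiFluor488-labelled peptide probe, read as fluorescence polarization after 10 min at room temperature.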 The settings on record: for Alexa488 Reconfirmed Curve Class: confirmatory retest; for Emax: read-out: Alexa488 Reconfirmed Efficacy.
Test [3] concerns the target T1, Pin1. Put plainly: Pin1 fluorescence polarization competition assay, primary qHTS (HiFluor-488 / Alexa488 probe).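 Also: Pin1 protein with fluorescent peptide probe, compound displacement read by fluorescence polarization, percent inhibition derived from corrected polarization values, concentration-response curves in 1536-well format.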
Method: The goal of this assay was to identify small-molecule inhibitors of Pin1 using a fluorescence polarization competition assay (FIG. 1). […] Candidate compounds were screened in a concentration-titration series (e.g., 57 μM to 0.7 nM).
as §1, §2, §3
Curves showing change polarized fluorescence may be categorized into 5 classes. Class 1 includes complete curves, having 2 asymptotes and an r^2 value of ≥0.9, with an efficacy of either >80% (class 1.1) or ≤80% (class 1.2). Class 1 curves may also be classified as noisy curves when efficacy is >80% and r^2<0.9 (class 1.3) or when efficacy is ≤80% and r^2<0.9 (class 1.4). Class 2 includes incomplete curves having 1 asymptote and an r^2 value of either >0.9 (subclass a) or <0.9 (subclass b), with an efficacy of either >80% (class 2.1) or ≤80% (class 2.2). Class 2 curves may also be classified as noisy curves when efficacy is >80% and r^2<0.9 (class 2.3) or when efficacy is ≤80% and r^2<0.9 (class 2.4). Class 3 includes single point activity curves having 1 asymptote and an efficacy >3 SD from the mean activity of the sample field at the highest tested concentration. […] A fifth class captures any curves not otherwise classified (FIG. 4).
The mark [4] stands for this setting: Alexa488 Primary Potency, primary qHTS.
Where [5] appears, read: Average HTS Potency, average over Alexa488 primary, Alexa488 reconfirmed and Tamra secondary assays.
Where [6] appears, read: read-out: Alexa488 Primary Efficacy.

T1 sequence (Q13526 whole entry): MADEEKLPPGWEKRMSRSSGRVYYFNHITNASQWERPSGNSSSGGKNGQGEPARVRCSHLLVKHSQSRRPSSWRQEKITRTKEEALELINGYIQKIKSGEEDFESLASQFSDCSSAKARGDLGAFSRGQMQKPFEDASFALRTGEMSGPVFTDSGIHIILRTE

For the molecule `COc1ccccc1Nc1ccc2c(O)cc(S(=O)(=O)O)cc2c1` [Compound 14], the 50% inhibitory concentration (IC50) amounted to 8 µM in test [1], 1 µM in test [2], 21 µM in test [3] (setting [4]) and 10 µM in test [3] (setting [5]). The Emax is 85% in test [1], 59% in test [2], 71% in test [3] (setting [6]) and 72% in test [3] (read-out: Average HTS Efficacy). The “Alexa488 Reconfirmed Curve Class” value in test [2] was 1.2 (≤80% (class 1.2)). The “Alexa488 Primary Curve Class” value in test [3] (primary qHTS) is 1.2 (≤80% (class 1.2)).
Turning to `O=S(=O)(O)c1cc(O)c2cc(Nc3ccccc3)ccc2c1` [Compound 15], the 50% inhibitory concentration (IC50) in test [1] came out at 12 µM; in test [2] it was 11 µM; in test [3] (setting [4]) it was 10 µM; in test [3] (setting [5]), 11 µM. Also, the Emax worked out at 300% in test [1], 71% in test [2], 27% in test [3] (setting [6]) and 133% in test [3] (read-out: Average HTS Efficacy). In test [2], the “Alexa488 Reconfirmed Curve Class” value is listed as 2.2 (≤80% (class 2.2)). In addition, the “Alexa488 Primary Curve Class” value in test [3] (primary qHTS) was 2.2 (≤80% (class 2.2)).
As for `CCCCCC(=O)Nc1cc(S(=O)(=O)O)cc2cc(S(=O)(=O)O)cc(O)c12` [Compound 16], the IC50 amounted to 2 µM in test [1], 2 µM in test [2], 76 µM in test [3] (setting [4]) and 27 µM in test [3] (setting [5]). Also, the Emax in test [1] is 84%; in test [2] it was 93%; in test [3] (setting [6]) it was 54%; in test [3] (read-out: Average HTS Efficacy), 77%.
As for `Cc1ccc(C)n1-c1cccc(C(=O)O)c1` [Compound 17], the IC50 in test [1] amounted to 3 µM; in test [2], 2 µM; in test [3] (setting [4]) it was 10 µM; in test [3] (setting [5]), 5 µM. Besides, the Emax in test [1] worked out at 89%; in test [2] it was 83%; in test [3] (setting [6]) it was 64%; in test [3] (read-out: Average HTS Efficacy), 79%.
With `Cc1ccc(C)n1-c1sccc1C(=O)O` [Compound 18], the IC50 came to 2 µM in test [1], 2 µM in test [2], 68 µM in test [3] (setting [4]) and 24 µM in test [3] (setting [5]). Further, the Emax turned out to be 95% in test [1], 91% in test [2], 44% in test [3] (setting [6]) and 77% in test [3] (read-out: Average HTS Efficacy).
Consider `O=C(O)CCCNC(=O)/C=C/c1ccco1` [Compound 19], for which the IC50 in test [1] was determined as 5 µM; in test [2], 2 µM; in test [3] (setting [4]), 38 µM; in test [3] (setting [5]), 15 µM. For the same molecule, the “Tamra Secondary Curve Class” value in test [1] is on record as 2.2 (≤80% (class 2.2)). For the same molecule, the Emax in test [1] was 78%; in test [2], 73%; in test [3] (setting [6]), 41%; in test [3] (read-out: Average HTS Efficacy) it was 64%. The “Alexa488 Reconfirmed Curve Class” value in test [2] is 1.2 (≤80% (class 1.2)). In addition, the “Alexa488 Primary Curve Class” value in test [3] (primary qHTS) was 1.2 (≤80% (class 1.2)).
With `O=C(c1ccc(=O)oc1)N1CCOCC1` [Compound 20], the IC50 came to 6 µM in test [1], 2 µM in test [2], 14 µM in test [3] (setting [4]) and 7 µM in test [3] (setting [5]). In test [1], the “Tamra Secondary Curve Class” value is reported as 1.2 (≤80% (class 1.2)). In addition, the Emax in test [1] stood at 70%; in test [2] it was 77%; in test [3] (setting [6]) it was 73%; in test [3] (read-out: Average HTS Efficacy), 73%. Moreover, the “Alexa488 Reconfirmed Curve Class” value in test [2] was 1.2 (≤80% (class 1.2)).
For `Cc1oc(-c2ccc3c(c2)OCCO3)cc1C(=O)NC(Cc1ccccc1)C(=O)O` (centres unmarked) [Compound 21], the IC50 came out at 8 µM in test [1], 11 µM in test [2], 15 µM in test [3] (setting [4]) and 11 µM in test [3] (setting [5]). Besides, in test [1], the “Tamra Secondary Curve Class” value is on record as 2.2 (≤80% (class 2.2)). Moreover, the Emax was 72% in test [1], 56% in test [2], 58% in test [3] (setting [6]) and 62% in test [3] (read-out: Average HTS Efficacy). Also, in test [2], the “Alexa488 Reconfirmed Curve Class” value is given as 2.2 (≤80% (class 2.2)). In test [3] (primary qHTS), the “Alexa488 Primary Curve Class” value is listed as 1.2 (≤80% (class 1.2)).
Regarding `O=C(O)c1cc2cccc([N+](=O)[O-])c2[nH]1` [Compound 22], the IC50 in test [1] came out at 12 µM; in test [2] it was 21 µM; in test [3] (setting [5]), 17 µM. For the same molecule, the “Tamra Secondary Curve Class” value in test [1] is given as 2.2 (≤80% (class 2.2)). Also, the Emax in test [1] worked out at 82%; in test [2], 93%; in test [3] (read-out: Average HTS Efficacy), 88%. Moreover, the “Alexa488 Reconfirmed Curve Class” value in test [2] is listed as 2.2 (≤80% (class 2.2)).
In the case of `O=C(O)Cc1c[nH]c2cccc(O)c12` [Compound 23], the IC50 came to 8 µM in test [1], 15 µM in test [2], 76 µM in test [3] (setting [4]) and 33 µM in test [3] (setting [5]). Also, the “Tamra Secondary Curve Class” value in test [1] was 2.2 (≤80% (class 2.2)). Further, the Emax in test [1] was found to be 77%; in test [2], 92%; in test [3] (setting [6]), 63%; in test [3] (read-out: Average HTS Efficacy), 77%.
As for `O=S(=O)(Nc1nc(-c2sccc2Cl)cs1)c1cc(Cl)ccc1Cl` [Compound 24], the IC50 in test [1] was found to be 12 µM; in test [2], 14 µM; in test [3] (setting [4]) it was 43 µM; in test [3] (setting [5]), 23 µM. Moreover, the Emax turned out to be 100% in test [1], 101% in test [2], 76% in test [3] (setting [6]) and 92% in test [3] (read-out: Average HTS Efficacy). In test [2], the “Alexa488 Reconfirmed Curve Class” value is recorded as 1.2 (≤80% (class 1.2)). Moreover, the “Alexa488 Primary Curve Class” value in test [3] (primary qHTS) was 1.2 (≤80% (class 1.2)).
Consider `COc1ccc(NC(=O)CN(C)C(=O)c2cc3c(s2)CCC3)cc1` [Compound 26], for which the IC50 in test [1] is 21 µM; in test [2], 24 µM; in test [3] (setting [4]), 20 µM; in test [3] (setting [5]) it was 22 µM. In addition, the Emax in test [1] was 101%; in test [2], 111%; in test [3] (setting [6]), 71%; in test [3] (read-out: Average HTS Efficacy), 94%.
Take `COc1ccc(S(=O)(=O)N2CCN(C(=O)c3cc4c(s3)CCC4)CC2)cc1` [Compound 27]: the IC50 in test [1] stood at 27 µM; in test [3] (setting [4]), 23 µM; in test [3] (setting [5]), 27 µM. For the same molecule, the Emax was determined as 126% in test [1], 112% in test [2], 85% in test [3] (setting [6]) and 108% in test [3] (read-out: Average HTS Efficacy).
For `Cc1ccc(C(=O)c2no[n+]([O-])c2C(=O)c2ccc(C)cc2)cc1` [Compound 29], the IC50 in test [1] was determined as 0.1 µM; in test [2] it was 0.1 µM; in test [3] (setting [4]), 3 µM; in test [3] (setting [5]), 0.9 µM. The Emax was found to be 82% in test [1], 90% in test [2], 83% in test [3] (setting [6]) and 85% in test [3] (read-out: Average HTS Efficacy).
For the molecule `Cc1c(C(=O)c2no[n+]([O-])c2C(=O)c2cnn(C)c2C)cnn1C` [Compound 30], the IC50 in test [1] is 0.43 µM; in test [2], 0.34 µM; in test [3] (setting [4]), 3 µM; in test [3] (setting [5]), 1.16 µM. Besides, the Emax came to 80% in test [1], 89% in test [2], 69% in test [3] (setting [6]) and 79% in test [3] (read-out: Average HTS Efficacy). For the same molecule, the “Alexa488 Primary Curve Class” value in test [3] (primary qHTS) was 1.2 (≤80% (class 1.2)).
Turning to `N#Cc1no[n+]([O-])c1C(=O)c1cccs1` [Compound 31], the IC50 in test [1] was determined as 2 µM; in test [2], 2 µM; in test [3] (setting [4]), 4 µM; in test [3] (setting [5]) it was 2 µM. Besides, the Emax in test [1] turned out to be 82%; in test [2], 85%; in test [3] (setting [6]), 74%; in test [3] (read-out: Average HTS Efficacy), 80%.
On to `COc1ccc(C(=O)c2no[n+]([O-])c2C(=O)c2ccc(OC)cc2)cc1` [Compound 32], for which the IC50 in test [1] was found to be 0.19 µM; in test [2], 0.24 µM; in test [3] (setting [4]), 38 µM; in test [3] (setting [5]), 13 µM. For the same molecule, the Emax was found to be 81% in test [1], 82% in test [2], 21% in test [3] (setting [6]) and 61% in test [3] (read-out: Average HTS Efficacy). In test [3] (primary qHTS), the “Alexa488 Primary Curve Class” value is 1.2 (≤80% (class 1.2)).
As to `Cc1cc(C(=O)NCc2ccc(C(=O)O)o2)c(C)o1` [Compound 33], the IC50 is 10 µM in test [1], 7 µM in test [2], 48 µM in test [3] (setting [4]) and 21 µM in test [3] (setting [5]). The “Tamra Secondary Curve Class” value in test [1] is on record as 2.2 (≤80% (class 2.2)). In addition, the Emax in test [1] is 70%; in test [2] it was 84%; in test [3] (setting [6]) it was 20%; in test [3] (read-out: Average HTS Efficacy), 58%. Moreover, in test [2], the “Alexa488 Reconfirmed Curve Class” value is 2.2 (≤80% (class 2.2)). For the same molecule, the “Alexa488 Primary Curve Class” value in test [3] (primary qHTS) was 1.2 (≤80% (class 1.2)).
Take `CCCCCCCCCCCCN1[C@@H](C(=O)O)c2cc(C(F)(F)F)ccc2S1(=O)=O` [Compound 34]: the IC50 in test [1] amounted to 38 µM; in test [2], 24 µM; in test [3] (setting [4]) it was 20 µM; in test [3] (setting [5]) it was 27 µM. Besides, the “Tamra Secondary Curve Class” value in test [1] was determined as 3.0. For the same molecule, the Emax in test [1] stood at 103%; in test [2], 104%; in test [3] (setting [6]) it was 65%; in test [3] (read-out: Average HTS Efficacy), 91%.
For `O=C(NC(Cc1ccccc1)C(=O)O)/C(=C\c1ccco1)NC(=O)c1ccccc1` (centres unmarked) [Compound 35], the IC50 in test [1] turned out to be 11 µM; in test [2], 9 µM; in test [3] (setting [4]), 38 µM; in test [3] (setting [5]) it was 19 µM. For the same molecule, in test [1], the “Tamra Secondary Curve Class” value is recorded as 2.2 (≤80% (class 2.2)). Besides, the Emax worked out at 75% in test [1], 112% in test [2], 26% in test [3] (setting [6]) and 71% in test [3] (read-out: Average HTS Efficacy).
Consider `CCCCOc1ccc(C(=O)N/C(=C/c2cccc([N+](=O)[O-])c2)C(=O)O)cc1` [Compound 36], for which the IC50 came out at 19 µM in test [1], 14 µM in test [2], 11 µM in test [3] (setting [4]) and 15 µM in test [3] (setting [5]). Moreover, the “Tamra Secondary Curve Class” value in test [1] is 2.2 (≤80% (class 2.2)). The Emax in test [1] worked out at 76%; in test [2], 62%; in test [3] (setting [6]), 101%; in test [3] (read-out: Average HTS Efficacy) it was 80%. Also, in test [2], the “Alexa488 Reconfirmed Curve Class” value is recorded as 2.2 (≤80% (class 2.2)).
